# From patent publication US20240124409A1, “GUAIANOLIDE SESQUITERPENE LACTONE DERIVATIVES AND PHARMACEUTICAL USE THEREOF” (NANJING UNIVERSITY OF CHINESE MEDICINE, priority 2021, published 2024)
# Marks after values point to notes of the source that are not given here.
# Tests used:
# Hepa1-6 cells = assay: Hepa1-6 subcutaneous mouse xenograft model; assay type: in vivo, C57BL/6 mice; details: 2 weeks
# Experimental: (§1) Hepa1-6 cells were cultured and amplified in vitro. Appropriate amount of the cells in logarithmic growth phase were resuspended in a suspension of a serum-free DMEM medium and Matrigel (1:1) to prepare a cell suspension in 2.5×10^6/100 μL under sterile conditions. 100 μL of the cell suspension was subcutaneously inoculated into the armpits of the front left limbs of C57BL/6 mice with a syringe. When the tumor volume grew to 100-200 mm^3, animals with moderate tumor size were randomly divided into groups, with 6 animals in each group. […] The mice were administered intragastrically every day for 2 weeks. During the administration, the weights and tumor diameters of the mice were measured every day. After the experiment, the mice were sacrificed by cervical dislocation, and the tumors were taken and weighed. The formula for calculating a tumor volume (TV) is: TV=½×a×b^2, where a represents the long diameter of a tumor; b represents the short diameter of a tumor.
# H22 cells = assay: H22 subcutaneous mouse xenograft model, tumor growth; assay type: in vivo, BALB/c mice; details: 2 weeks
# Experimental: as §1, with “H22” for “Hepa1-6”, “RPMI 1640” for “DMEM”, “3×105/100” for “2.5×10^6/100”, “BALB/c” for “C57BL/6”
# CT26 cells = assay: CT26 subcutaneous mouse xenograft model; assay type: in vivo, C57BL/6 mice; details: 3 weeks
# Experimental: CT26 cells were cultured and amplified in vitro. Appropriate amount of the cells in logarithmic growth phase were resuspended in a suspension of a serum-free RPMI 1640 medium and Matrigel (1:1) to prepare a cell suspension in 5×10^5/100 μL under sterile conditions. 100 μL of the cell suspension was subcutaneously inoculated into the armpits of the front left limbs of male C57BL/6 mice with a syringe. When the tumor volume grew to 50-70 mm^3, animals with moderate tumor size were randomly divided into groups, with 5 animals in each group. […] The mice were administered intragastrically every day for 3 weeks. During the administration, the weights and tumor diameters of the mice were measured every day. After the experiment, the mice were sacrificed by cervical dislocation, and the tumors were taken and weighed. The formula for calculating a tumor volume (TV) is: TV=½×a×b2, where a represents the long diameter of a tumor; b represents the short diameter of a tumor.
# MDSCs and T cells = assay: H22 xenograft model, flow cytometry of MDSCs and T cells in tumor and spleen; assay type: in vivo, BALB/c mice
# Experimental: as §1, with “H22” for “Hepa1-6”, “RPMI 1640” for “DMEM”, “3×105/100” for “2.5×10^6/100”, “BALB/c” for “C57BL/6”
# The tumor-bearing mice were sacrificed by the cervical dislocation method, placed in a beaker containing 75% alcohol, and the tumors of the mice were peeled off. The tumors were first soaked in a sterile petri dish containing RPMI 1640. After all the tumors were peeled off, fingernail sized tumor was cut off and transferred to a 1.5 mL EP tube. The tumors were cut into small pieces, and transferred into a 15 mL centrifuge tube containing 3-5 mL of digestive enzymes (Collagenase IV 1 mg/mL, Hyaluronidase 1 mg/mL, and DNase I 20 U/mL), and digested in a shaker at 200 rpm and 37° C. for 1 h. After digestion, the mixture was allowed to pass through a 200-mesh screen to obtain the suspension of the tumor cells. The resulting tumor suspension was centrifuged at 1600 rpm for 5 min. The supernatant was aspirated away. 1 mL of 1×PBS was added into each tube to resuspend the cells. The cell suspension was transferred into a 1.5 mL EP tube, and centrifuged at 1600 rpm for 5 min. The supernatant was removed. 100 μL of 1×PBS was used in each tube to resuspend the cells respectively. Then 1 μL of a viability dye was added. The mixture was incubated at room temperature in the dark for 15 min after being mixed well. At the same time, the spleen was taken out with a tweezer, placed into a sterile petri dish containing 5 mL of the RPMI 1640 medium, and positioned on a 200-mesh cell screen. The spleen was gently ground with the needle core of a 10 mL syringe. A small amount of the RPMI 1640 medium was aspirated to rinse the cell screen. The spleen cell suspension was rinsed into a 15 mL centrifuge tube, and centrifuged at 1600 rpm for 5 min to collect cells. The cells were washed once with 1×PBS. 3 mL of an erythrocyte lysate (diluted with ddH2O) was added to each tube to lyse for 5 min. After lysing, 10 mL of 1×PBS was added to each tube to stop lysing. The mixture was centrifuged at 1600 rpm for 5 min. 1 mL of 1×PBS was added to each 15 mL centrifuge tube. The mixture was transferred to a 1.5 mL EP tube, and centrifuged at 1600 rpm for 5 min. 1 mL of 1×PBS was added to each tube of the stained tumor cells and lysed spleen cells respectively to wash once. The mixture was centrifuged at 1600 rpm for 5 min, and the supernatant was removed. 100 μL of 1×PBS was used to resuspend the tumor cells and spleen cells respectively. 1 μL of the FcX™ antibody was then added to each tube. The mixture was incubated at room temperature in the dark for 10 min. After the incubation, 1 μL of each of the CD45, CD11b and Gr1 antibodies was added to each tube sequentially. The mixture was incubated at 4° C. in the dark for 30 min, and washed once with 1×PBS after the incubation. The supernatant was discarded. 300 μL of 1×PBS was used to resuspend the cells. The mixture was filtered through a filter membrane into a flow tube, and detected on a machine.
# [1] = Stability in artificial gastric juice environment (HPLC); details: 37° C.
# Experimental: The samples were dissolved in 500 μL of chromatographic methanol, into which were added 1500 μL of artificial gastric juice, mixed well and then dissolved completely by ultrasound. 50 μL of the above solutions were aspirated precisely, diluted by adding 200 μL of chromatographic methanol, filtered and analyzed by HPLC, wherein the HPLC analysis conditions were mobile phase: 65% methanol -35% water, flow rate: 0.8 mL/min, and column temperature: 25° C., and the initial peak areas were recorded. The above solutions were placed on a constant temperature water bath at 37° C., sampled at 8 h, 16 h and 24 h respectively, and analyzed by HPLC. By calculating the peak areas respectively, the stability data of the corresponding samples in artificial gastric juice environment at 8 h, 16 h and 24 h can be obtained.
compound,measurement,setting,value
CN(C)C[C@@H]1C(=O)O[C@H]2[C@H]1CC[C@@]1(C)C[C@]13CC[C@@](C)(O)[C@H]23 [Compound 23],Tumor growth inhibition,Hepa1-6 cells; 8.43 mg/kg/d i.g.,96.78%***
same,Tumor weight,Hepa1-6 cells; 8.43 mg/kg/d i.g.,0.03 g
same,Tumor growth inhibition,H22 cells; 8.43 mg/kg/d i.g.,42.92%
same,Tumor weight,H22 cells; 8.43 mg/kg/d i.g.,4.88 g
same,Tumor growth inhibition,CT26 cells; 16.86 mg/kg/d i.g.,43.36%
same,Tumor weight,CT26 cells; 16.86 mg/kg/d i.g.,4.62 g
same,MDSCs in Spleen,MDSCs and T cells; 8.43 mg/kg/d,23.10%
same,MDSCs in tumor,MDSCs and T cells; 8.43 mg/kg/d,7.86%
same,T Cells in Spleen,MDSCs and T cells; 8.43 mg/kg/d,37.19%
same,T Cells in tumor,MDSCs and T cells; 8.43 mg/kg/d,29.44%
"C=C1C(=O)O[C@@H]2[C@H]3C(C)=CC[C@@]34O[C@@]4(C)CC[C@@H]12 [arglabin, reference compound]",Tumor growth inhibition,Hepa1-6 cells; 10 mg/kg/d i.g.,95.86%***
same,Tumor weight,Hepa1-6 cells; 10 mg/kg/d i.g.,0.04 g
same,Tumor growth inhibition,H22 cells; 10 mg/kg/d i.g.,39.43%
same,Tumor weight,H22 cells; 10 mg/kg/d i.g.,5.18 g
same,Tumor growth inhibition,CT26 cells; 20 mg/kg/d i.g.,34.94%
same,Tumor weight,CT26 cells; 20 mg/kg/d i.g.,5.31 g
same,MDSCs in Spleen,MDSCs and T cells; 10 mg/kg/d,27.89%
same,MDSCs in tumor,MDSCs and T cells; 10 mg/kg/d,27.0%
same,T Cells in Spleen,MDSCs and T cells; 10 mg/kg/d,27.02%
same,T Cells in tumor,MDSCs and T cells; 10 mg/kg/d,17.72%
same,Non-degradation percentage at 8 h,[1],50.14%
same,Non-degradation percentage at 16 h,[1],48.70%
same,Non-degradation percentage at 24 h,[1],43.40%
C=C1C(=O)O[C@@H]2[C@@H]3[C@]4(CC[C@@]3(C)O)C[C@]4(C)CC[C@@H]12 [Compound 1],Non-degradation percentage at 8 h,[1],99.08%
same,Non-degradation percentage at 16 h,[1],98.76%
same,Non-degradation percentage at 24 h,[1],98.16%
